# Columns and labels:
# [1] = tested on: Myzus persicae (Green Peach Aphid); experiment: Myzus persicae (Green Peach Aphid) feeding/residual contact activity, preventive; sprayed sunflower leaf discs; assay type: in vivo; conditions: Pirimicarb alone
# Excerpt: (§1) A synergistic effect exists whenever the action of an active ingredient combination is greater than the sum of the actions of the individual components.
# (§2) The action to be expected E for a given active ingredient combination obeys the so-called COLBY formula and can be calculated as follows (COLBY, S. R. “Calculating synergistic and antagonistic responses of herbicide combination”. Weeds, Vol. 15, pages 20-22; 1967): […]
# (§3) ppm=milligrams of active ingredient (=a.i.) per liter of spray mixture
# (§4) X=% action by active ingredient A) using p ppm of active ingredient
# (§5) Y=% action by active ingredient B) using q ppm of active ingredient.
# (§6) According to COLBY, the expected (additive) action of active ingredients A)+B) using p+q ppm of active ingredient is If the action actually observed (O) is greater than the expected action (E), then the action of the combination is super-additive, i.e. there is a synergistic effect. In mathematical terms the synergism factor SF corresponds to O/E. In the agricultural practice an SF of ≧1.2 indicates significant improvement over the purely complementary addition of activities (expected activity), while an SF of ≦0.9 in the practical application routine signals a loss of activity compared to the expected activity.
# Myzus persicae (Green Peach Aphid): feeding/residual contact activity, preventive
# Sunflower leaf discs were placed on agar in a 24-well microtiter plate and sprayed with the DMSO test solutions of Mixtures (as provided by Table 45). After drying, the leaf discs were infested with an aphid population of mixed ages. After an incubation period of 6 DAT (days after treatment), samples were checked for mortality.
# [2] = tested on: Tetranychus urticae (Two-Spotted Spider Mite); experiment: Tetranychus urticae (Two-Spotted Spider Mite) feeding/contact activity, preventive; sprayed bean leaf discs; assay type: in vivo; conditions: Pirimicarb alone
# Excerpt: as §1, §2, §3, §4, §5, §6
# Tetranychus urticae (Two-Spotted Spider Mite): feeding/contact activity, preventive
# Bean leaf discs on agar in 24-well microtiter plates were sprayed with the DMSO test solutions of certain Mixtures (as provided by Table 45). After drying, the leaf discs were infested with mite populations of mixed ages. 8 days later, discs were checked for mortality against mobile stages.
structure (smiles),measurement,setting,value
Cc1nc(N(C)C)nc(OC(=O)N(C)C)c1C [Pirimicarb],"AVERAGE DEAD IN % AFTER 6 DAYS, Pirimicarb","[1]; 12.5 PPM AI, 6 DAT",0%
same,"AVERAGE DEAD IN % AFTER 6 DAYS, Pirimicarb","[1]; 25 PPM AI, 6 DAT",17.5%
same,"AVERAGE DEAD IN % AFTER 6 DAYS, Pirimicarb","[1]; 25 PPM AI, 6 DAT (Table 47)",17.5%
same,"AVERAGE DEAD IN % AFTER 6 DAYS, Pirimicarb","[1]; 50 PPM AI, 6 DAT",65%
same,"AVERAGE DEAD IN % AFTER 6 DAYS, Pirimicarb","[1]; 100 PPM AI, 6 DAT",87.5%
same,"AVERAGE DEAD IN % AFTER 6 DAYS, Pirimicarb","[1]; 200 PPM AI, 6 DAT",100%
same,"AVERAGE DEAD IN % AFTER 8 DAYS, Pirimicarb","[2]; 25 PPM AI, mobile stages",0%
same,"AVERAGE DEAD IN % AFTER 8 DAYS, Pirimicarb","[2]; 50 PPM AI, mobile stages",0%
same,"AVERAGE DEAD IN % AFTER 8 DAYS, Pirimicarb","[2]; 100 PPM AI, mobile stages",0%
same,"AVERAGE DEAD IN % AFTER 8 DAYS, Pirimicarb","[2]; 200 PPM AI, mobile stages (Table 48)",0%
same,"AVERAGE DEAD IN % AFTER 8 DAYS, Pirimicarb","[2]; 200 PPM AI, mobile stages (Table 49)",0%
same,"AVERAGE DEAD IN % AFTER 8 DAYS, Pirimicarb","[2]; 400 PPM AI, mobile stages",0%

# — patent US9603367B2, “Pesticidal mixtures including spiroheterocyclic pyrrolidine diones” (priority 2012, dated 2017)
